According to patent US12091425B2 (AMGEN INC., priority 2016, dated 2024):

Biological target: T1, Mcl-1/Bim interaction, recombinant human Mcl-1 (171-327) (Homo sapiens, UniProt Q07820)
T1 construct: made in house
Test: Cell free Mcl-1: Bim Affinity Assay (Mcl-1 HTRF)
Type: binding
Settings: TR-FRET, 0.1 nM Mcl-1 (171-327), 0.05 nM biotin-Bim (51-76)
Procedure, shortened: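 Biotin-Bim(51-76) peptide, TR-FRET readout, overnight incubation; IC50 from duplicate competition curves, 4-parameter fit.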

T1 sequence (Q07820 171-327): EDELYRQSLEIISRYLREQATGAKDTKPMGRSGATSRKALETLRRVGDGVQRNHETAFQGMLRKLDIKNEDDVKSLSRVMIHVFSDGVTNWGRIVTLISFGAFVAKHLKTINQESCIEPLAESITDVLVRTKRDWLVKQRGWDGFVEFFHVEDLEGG

| Molecule | IC50 [nM] |
| --- | --- |
| COC[C@H]1CC/C=C/[C@H](O)[C@@H]2CC[C@H]2CN2C[C@@]3(CCCc4cc(Cl)ccc43)COc3ccc(cc32)C(=O)NS1(=O)=O [Example 435, (1S,3′R,6′R,7′S,8′E,12′R)-6-chloro-7′-hydroxy-12′-(methoxymethyl)-3,4-dihydro-2H,15′H-spiro[naphthalene-1,22′-[20]oxa[13]thia[1,14]diazatetracyclo[14.7.2.0^3,6.0^19,24]pentacosa [8,16,18,24]tetraen]-15′-one 13′,13′-dioxide] | 2.56 |
| C[C@@H]1CC/C=C/[C@H](O)[C@]2(C)CC[C@H]2CN2C[C@@]3(CCCc4cc(Cl)ccc43)COc3ccc(cc32)C(=O)NS1(=O)=O (single isomer, unassigned) [Example 118] | 34.9 |

Other lines, results leading:

| IC50 [nM] | Molecule |
| --- | --- |
| 3.73 | C/C=C/C1CC(=O)[C@@H]2CC[C@H]2CN2C[C@@]3(CCCc4cc(Cl)ccc43)COc3ccc(cc32)C(=O)NS(=O)(=O)[C@H](C)[C@@H](C)C1 (stereo in doubt) [Example 350, (1S,3′R,6′R,9′R,11′S,12′R)-6-chloro-11′,12′-dimethyl-9′-((1E)-1-propen-1-yl)-3,4-dihydro-2H,7′H,15′H-spiro[naphthalene-1,22′-[20]oxa[13]thia[1,14]diazatetracyclo[14.7.2.0^3,6.0^19,24]pentacosa [16,18,24]triene]-7′,15′-dione 13′,13′-dioxide] |
| 3.69 | CO[C@@H]1/C=C/CCCS(=O)(=O)NC(=O)c2ccc3c(c2)N(C[C@@H]2CC[C@H]21)C[C@@]1(CCCc2cc(Cl)ccc21)CO3 [Example 1091, (1S,3′R,6′R,7′R,8′E)-6-chloro-7′-methoxy-3,4-dihydro-2H,15′H-spiro [naphthalene-1,22′-[20]oxa[13]thia[1,14]diazatetracyclo[14.7.2.0^3,6.0^19,24]pentacosa [8,16,18,24]tetraen]-15′-one 13′,13′-dioxide] |
| 2.06 | O=C1NS(=O)(=O)C[C@H](CO)C/C=C/[C@H](O)[C@@H]2CC[C@H]2CN2C[C@@]3(CCCc4cc(Cl)ccc43)COc3ccc1cc32 [Example 1085, (1S,3′R,6′R,7′S,8′E,11′S)-6-chloro-7′-hydroxy-11′-(hydroxymethyl)-3,4-dihydro-2H,15′H-spiro [naphthalene-1,22′-[20]oxa[13]thia[1,14]diazatetracyclo[14.7.2.0^3,6.0^19,24]pentacosa [8,16,18,24]tetraen]-15′-one 13′,13′-dioxide] |
| 32.3 | CO[C@@H]1CCCCCCS(=O)(=O)NC(=O)c2ccc3c(c2)N(C[C@@H]2CC[C@H]21)C[C@@]1(CCCc2cc(Cl)ccc21)CO3 [Example 230, (1S,3′R,6′R,7′R)-6-chloro-7′-methoxy-3,4-dihydro-2H,16′H-spiro[naphthalene-1,23′-[21]oxa[14]thia[1,15]diazatetracyclo[15.7.2.0^3,6.0^20,25]hexacosa[17,19,25]trien]-16′-one 14′,14′-dioxide] |
| 2.45 | O=C1NS(=O)(=O)[C@H]2C[C@@H](/C=C/[C@H](O)[C@@H]3CC[C@H]3CN3C[C@@]4(CCCc5cc(Cl)ccc54)COc4ccc1cc43)C2 [Example 100, (1S,3′R,6′R,7′S,8′E,10′S,12′R)-6-chloro-7′-hydroxy-3,4-dihydro-2H,15′H-spiro[naphthalene-1,22′-[20]oxa[13]thia[1,14]diazapentacyclo[14.7.2.1^10,12.0^3,6.0^19,24]hexacosa[8,16,18,24]tetraen]-15′-one 13′,13′-dioxide] |
| 1.23 | CC[C@@H]1CC/C=C/[C@H](OCC2CCOCC2)[C@@H]2CC[C@H]2CN2C[C@@]3(CCCc4cc(Cl)ccc43)COc3ccc(cc32)C(=O)NS1(=O)=O [Example 983, (1S,3′R,6′R,7′S,8′E,12′R)-6-chloro-12′-ethyl-7′-(tetrahydro-2H-pyran-4-ylmethoxy)-3,4-dihydro-2H,15′H-spiro[naphthalene-1,22′-[20]oxa[13]thia[1,14]diazatetracyclo[14.7.2.0^3,6.0^19,24]pentacosa [8,16,18,24]tetraen]-15′-one 13′,13′-dioxide] |

Same assay, conditions: cell free Mcl-1:Bim TR-FRET, recombinant human Mcl-1 (171-327)

| Molecule | IC50 [nM] |
| --- | --- |
| CC[C@@H]1CCCC[C@H](O)[C@@H]2CC[C@H]2CN2C[C@@]3(CCc4cc(Cl)ccc43)COc3ccc(cc32)C(=O)NS1(=O)=O (single isomer, unassigned) [Example 695, (1S,3′R,6′R,7′S,12′R)-5-chloro-12′-ethyl-7′-hydroxy-2,3-dihydro-15′H-spiro[indene-1,22′-[20]oxa[13]thia[1,14]diazatetracyclo[14.7.2.0^3,6.0^19,24]pentacosa [16,18,24]trien]-15′-one 13′,13′-dioxide or (1S,3′R,6′R,7′S,12′S)-5-chloro-12′-ethyl-7′-hydroxy-2,3-dihydro-15′H-spiro[indene-1,22′-[20]oxa[13]thia[1,14]diazatetracyclo[14.7.2.0^3,6.0^19,24]pentacosa [16,18,24]trien]-15′-one 13′,13′-dioxide] | 2.04 |
| O=C1NS(=O)(=O)CCC[C@H](O)CC[C@@H]2CC[C@H]2CN2C[C@@]3(CCCc4cc(Cl)ccc43)COc3ccc1cc32 (single isomer, unassigned) [Example 502, (1S,3′R,6′S,9′R)-6-chloro-9′-hydroxy-3,4-dihydro-2H,15′H-spiro[naphthalene-1,22′-[20]oxa[13]thia[1,14]diazatetracyclo[14.7.2.0^3,6.0^19,24]pentacosa [16,18,24]trien]-15′-one 13′,13′-dioxide or (1S,3′R,6′S,9′S)-6-chloro-9′-hydroxy-3,4-dihydro-2H,15′H-spiro[naphthalene-1,22′-[20]oxa[13]thia[1,14]diazatetracyclo[14.7.2.0^3,6.0^19,24]pentacosa [16,18,24]trien]-15′-one 13′,13′-dioxide] | 2.31 |
| CC(C)(O)[C@@H]1CC/C=C/[C@H](O)[C@@H]2CC[C@H]2CN2C[C@@]3(CCCc4cc(Cl)ccc43)COc3ccc(cc32)C(=O)NS1(=O)=O (single isomer, unassigned) [Example 696] | 0.305 |
| CC#CC1=CC(O)CCC(C)S(=O)(=O)NC(=O)c2ccc3c(c2)N(CC2CCC12)CC1(CCCc2cc(Cl)ccc21)CO3 (single isomer, unassigned) [Example 605] | 0.943 |
| O=C1NS(=O)(=O)CCC[C@]2(O)CCO[C@H](C2)[C@@H]2CC[C@H]2CN2C[C@@]3(CCCc4cc(Cl)ccc43)COc3ccc1cc32 (single isomer, unassigned) [Example 900] | 4.33 |
| O=C1NS(=O)(=O)[C@@H](CO)CCCC[C@H](O)[C@@H]2CC[C@H]2CN2C[C@@]3(CCCc4cc(Cl)ccc43)COc3ccc1cc32 (single isomer, unassigned) [Example 713] | 1.71 |
| C[C@@H]1CC[C@@H]2C[C@H]2[C@H](O)[C@@H]2CC[C@H]2CN2C[C@@]3(CCCc4cc(Cl)ccc43)COc3ccc(cc32)C(=O)NS1(=O)=O (single isomer, unassigned) [Example 951] | 13.1 |
| (1S,3′R,6′S,14′S,15′S)-6-chloro-3,4-dihydro-2H,9′H,17′H-spiro[naphthalene-1,24′-[22]oxa[15]thia[1,10,16]triazapentacyclo[16.7.2.1^10,14.0^3,6.0^21,26]octacosa[18,20,26]triene]-9′,17′-dione 15′-oxide or (1S,3′R,6′S,14′S,15′R)-6-chloro-3,4-dihydro-2H,9′H,17′H-spiro[naphthalene-1,24′-[22]oxa[15]thia[1,10,16]triazapentacyclo[16.7.2.1^10,14.0^3,6.0^21,26]octacosa[18,20,26]triene]-9′,17′-dione 15′-oxide [Example 949] | 8.43 |
| O=C1NS(=O)(=O)CCCCC[C@@H](O)[C@@H]2CC[C@H]2CN2C[C@@]3(CCCc4cc(Cl)ccc43)COc3ccc1cc32 [Example 843, (1S,3′R,6′R,7′R)-6-chloro-7′-hydroxy-3,4-dihydro-2H,15′H-spiro[naphthalene-1,22′-[20]oxa[13]thia[1,14]diazatetracyclo[14.7.2.0^3,6.0^19,24]pentacosa [16,18,24]trien]-15′-one 13′,13′-dioxide] | 6.8 |
| O=C1NS(=O)(=O)CCCCC[C@@H](NCC(F)(F)F)[C@@H]2CC[C@H]2CN2C[C@@]3(CCCc4cc(Cl)ccc43)COc3ccc1cc32 (single isomer, unassigned) [Example 930] | 19.6 |
| O=C1NS(=O)(=O)C/C=C\C[C@@H](O)C[C@@H]2CC[C@H]2CN2C[C@@]3(CCCc4cc(Cl)ccc43)COc3ccc1cc32 (single isomer, unassigned) [Example 914] | 1.87 |
| C=C1CCCCCS(=O)(=O)NC(=O)c2ccc3c(c2)N(C[C@@H]2CC[C@@H]12)C[C@@]1(CCCc2cc(Cl)ccc21)CO3 [Example 904, (1S,3′R,6′R)-6-chloro-7′-methylidene-3,4-dihydro-2H,15′H-spiro[naphthalene-1,22′-[20]oxa[13]thia[1,14]diazatetracyclo[14.7.2.0^3,6.0^19,24]pentacosa [16,18,24]trien]-15′-one 13′,13′-dioxide] | 16.2 |
| CC[C@@H]1C/C=C/[C@H](OC)[C@@H]2CC[C@H]2CN2C[C@@]3(CCCc4cc(Cl)ccc43)COc3ccc(cc32)C(=O)NS1(=O)=O [Example 763, (1S,3′R,6′R,7′S,8′E,11′R)-6-chloro-11′-ethyl-7′-methoxy-3,4-dihydro-2H,14′H-spiro[naphthalene-1,21′-[19]oxa[12]thia[1,13]diazatetracyclo[13.7.2.0^3,6.0^18,23]tetracosa[8,15,17,23]tetraen]-14′-one 12′,12′-dioxide] | 2.93 |
| O=C1NS(=O)(=O)C[C@H](CO)CCC[C@H](O)[C@@H]2CC[C@H]2CN2C[C@@]3(CCCc4cc(Cl)ccc43)COc3ccc1cc32 (single isomer, unassigned) [Example 708] | 1.12 |
